Test results: PubChem BioAssay (NCI)
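Grown in 96-well plates, cells were treated for 48 hours with each compound at five concentrations. Insufficient inhibition: endpoint recorded as highest concentration tested. The concentration for 50% growth inhibition is given as GI50. At the TGI there is no net growth.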

Key:
Assay in all cases: NCI anticancer screen, dose series, 48 h
UACC-62 melanoma = tested on: UACC-62 melanoma
K-562 leukemia = tested on: K-562 leukemia
NCI-H460 lung = tested on: NCI-H460 lung
MALME-3M melanoma = tested on: MALME-3M melanoma
SF-268 CNS = tested on: SF-268 CNS
MDA-MB-435 = tested on: MDA-MB-435
A498 renal = tested on: A498 renal
T-47D breast = tested on: T-47D breast
RPMI-8226 leukemia = tested on: RPMI-8226 leukemia
A549 NSCLC = tested on: A549 NSCLC

Structure (SMILES) | GI50 (UACC-62 melanoma) [µM] | TGI (UACC-62 melanoma) [µM] | GI50 (K-562 leukemia) [µM] | TGI (K-562 leukemia) [µM] | GI50 (NCI-H460 lung) [µM] | TGI (NCI-H460 lung) [µM] | GI50 (MALME-3M melanoma) [µM] | TGI (MALME-3M melanoma) [µM] | GI50 (SF-268 CNS) [µM] | TGI (SF-268 CNS) [µM] | GI50 (MDA-MB-435) [µM] | TGI (MDA-MB-435) [µM] | GI50 (A498 renal) [µM] | TGI (A498 renal) [µM] | GI50 (T-47D breast) [µM] | TGI (T-47D breast) [µM] | GI50 (RPMI-8226 leukemia) [µM] | TGI (RPMI-8226 leukemia) [µM] | TGI (A549 NSCLC) [µM] | GI50 (A549 NSCLC) [µM]
CCOC(=O)c1cc2c(n1Cc1ccccc1OC)-c1oncc1CCC2 | 3.37 | > 100 | 1.59 | > 100 | 3.89 | > 100 | 3.08 | > 100 | 46.2 | > 100 | 0.351 | > 100 | 3.46 | > 100 | 2.46 | > 100 | 4.11 | > 100 | – | –
O=C(O)c1[nH]c2c([N+](=O)[O-])cc([N+](=O)[O-])cc2c1C(=O)O | – | > 100 | – | > 100 | – | > 100 | – | > 100 | – | > 100 | – | > 100 | – | > 100 | – | > 100 | – | – | > 100 | –
CNC(=O)NCCN1N=C(C)/C(=C\c2ccccc2)CC1=O | – | > 100 | – | > 100 | – | > 100 | – | > 100 | – | > 100 | – | – | – | > 100 | – | – | – | > 100 | > 100 | –
CC(=N/NC(N)=S)/C(C)=N/NC(N)=S | – | > 100 | – | > 100 | – | > 100 | – | > 100 | – | > 100 | – | > 100 | – | – | – | – | – | > 100 | > 100 | –
CCc1cccc(NC(=O)c2cc(/C=C/c3ccccc3)[nH]c(=S)n2)c1 | – | > 100 | – | > 100 | – | > 100 | – | > 100 | – | > 100 | – | – | – | > 100 | – | – | – | > 100 | > 100 | –
CCc1ccccc1NC(=O)C(=O)C(C#N)c1c(Cl)cccc1Cl (stereo not given) | – | > 100 | – | > 100 | – | – | – | > 100 | – | > 100 | – | – | – | – | – | – | – | > 100 | > 100 | –
Oc1cc(O)c2c(c1)OC(c1ccc(O)c(O)c1)C(O)C2c1c(O)cc(O)c2c1OC(c1ccc(O)c(O)c1)C(O)C2 (stereo not given) | – | > 100 | – | – | – | > 100 | – | > 100 | – | > 100 | – | > 100 | – | > 100 | – | > 100 | – | > 100 | > 100 | –
Cc1ccc(C2C3Cc4ccccc4C3=NN2c2ccc(S(=O)(=O)NC(=O)Nc3ccccc3)cc2)cc1 (stereo not given) | 11.2 | 23.2 | 11.5 | 26.8 | 19.3 | 70.1 | – | – | 17.5 | 55 | 18.7 | 46.2 | 15.6 | 30.7 | 36.8 | > 100 | 15 | 47.2 | 27.8 | 12.7
Cc1cn2c(/C=C3\C(=O)N(C)c4ccc(Cl)cc43)c(C)nc2s1 | 3.7 | > 100 | – | – | 2.86 | 15.3 | 69.6 | > 100 | 3.02 | > 100 | 1.94 | 5.66 | 10.8 | > 100 | > 100 | > 100 | 2.84 | 9.4 | 32.9 | 6.88
CC(C)(C)OC1=C(OC(C)(C)C)C(O)(c2ccc(Cl)cc2)C1=O (stereo not given) | – | > 100 | – | > 100 | – | > 100 | – | > 100 | – | > 100 | – | – | – | > 100 | – | – | – | > 100 | > 100 | –
